This passage reports IC50 results from patent publication US10358446B2, “Bruton's tyrosine kinase inhibitors” (Zibo Biopolar Changsheng Pharmaceutical Co. Ltd., priority 2015, dated 2019).

Chain of BTK (Q06187 whole entry, species assumed): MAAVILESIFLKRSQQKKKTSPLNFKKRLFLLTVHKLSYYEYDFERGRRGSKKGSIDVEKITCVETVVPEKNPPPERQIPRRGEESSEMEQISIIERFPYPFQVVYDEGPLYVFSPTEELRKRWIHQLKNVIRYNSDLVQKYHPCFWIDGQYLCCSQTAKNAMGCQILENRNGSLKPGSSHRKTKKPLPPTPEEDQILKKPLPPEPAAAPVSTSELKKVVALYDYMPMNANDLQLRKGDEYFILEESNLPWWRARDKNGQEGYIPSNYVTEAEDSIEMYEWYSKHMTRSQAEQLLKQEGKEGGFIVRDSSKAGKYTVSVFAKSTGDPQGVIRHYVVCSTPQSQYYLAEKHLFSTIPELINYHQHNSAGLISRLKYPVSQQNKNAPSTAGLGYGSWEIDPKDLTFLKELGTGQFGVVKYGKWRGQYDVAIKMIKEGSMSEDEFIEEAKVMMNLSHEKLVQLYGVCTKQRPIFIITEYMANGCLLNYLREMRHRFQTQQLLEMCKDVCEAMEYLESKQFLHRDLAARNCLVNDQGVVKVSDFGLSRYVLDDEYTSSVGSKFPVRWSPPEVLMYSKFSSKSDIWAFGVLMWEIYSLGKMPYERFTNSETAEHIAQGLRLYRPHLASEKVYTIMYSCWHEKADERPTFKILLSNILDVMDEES

This test concerns the target BTK (Homo sapiens (Human), UniProt Q06187). The experiment in a line: Btk kinase assay (HTRF). Format: biochemical. Particulars: [ATP]=80 μM, BTK=3.4 nM; read-out: BTK Inhibition. As for the experimental part: Btk kinase activity was determined using a homogenous time resolved fluorescence (HTRF) methodology. Measurements were performed in a reaction volume of 15 μL using 384-well assay plates. Kinase enzyme, inhibitor, ATP and 1 μM peptide substrate were incubated in a reaction buffer compose of Hepes 50 mM (pH7.0), NaN3 0.02%, BSA 0.01%, Orthocanadate 0.1 mM. After one hour, the kinase reaction was quenched by the addition of […] antibody and XL-665 in 1× Detection buffer containing 60 mM EDTA (Cisbio), and the mixture was allowed to incubate for one hour. The HTRF signal was measured on a multimode plate reader (EnVision® Multilabel Reader, Perkin Elmer) with an excitation wavelength (λEx) of 330 nm and detection wavelengths (λEm) of 615 and 665 nrm. Activity was determined by the ratio of the fluorescence at 665 nm to that at 615 nm. For each compound, enzyme activity as measured at various concentrations of compound, Negative control reactions were performed in the absence of inhibitor in two replicates and eight no enzyme controls were used to determine baseline fluorescence levels. IC50s were obtained according to the equation: […] For BTK assay, [ATP]=80 μM, BTK=3.4 nM.
(In TR-FRET formats the signal depends on donor and acceptor labels being close together.)
As for `C=CC(=O)N1CCC[C@@H](n2c(=O)n(-c3ccc(Oc4cccc(F)c4C)cc3)c3cnccc32)C1` [Example 57, (R)-1-(1-acryloylpiperidin-3-yl)-3-(4-(3-fluoro-2-methylphenoxy)phenyl)-1H-imidazo[4,5-c]pyridin-2(3H)-one], the IC50 was in the range of 10 to 100 nM.
In the case of `C=CC(=O)Nc1cccc(-n2c(=O)n(-c3ccc(C(=O)NCc4ccc(F)cc4)cc3)c3cnccc32)c1` [Example 249, 4-(1-(3-acrylamidophenyl)-2-oxo-1H-imidazo[4,5-c]pyridin-3(2H)-yl)-N-(4-fluorobenzyl)benzamide], the IC50 fell in the range of 10 to 100 nM.
To `C=CC(=O)Nc1cccc(-n2c(=O)n(-c3ccc(OCc4ccccn4)cc3)c3cnccc32)c1` [Example 196, N-(3-(2-oxo-3-(4-(pyridin-2-ylmethoxy)phenyl)-2,3-dihydro-1H-imidazo[4,5-c]pyridin-1-yl)phenyl)acrylamide] belongs 100 to 1000 nM.
Regarding `C=CC(=O)Nc1cccc(-n2c(=O)n(-c3ccc(Oc4cccc(OC(F)(F)F)c4)cc3)c3cnccc32)c1` [Example 70, N-(3-(2-oxo-3-(4-(3-(trifluoromethoxy)phenoxy)phenyl)-2,3-dihydro-1H-imidazo[4,5-c]pyridin-1-yl)phenyl)acrylamide], the IC50 was 1000 to 10000 nM.
As to `C=CC(=O)N1CC[C@@H](n2c(=O)n(-c3cccc(Oc4cccc(OC5CC5)c4)c3)c3cnccc32)C1` [Example 56, (R)-1-(1-acryloylpyrrolidin-3-yl)-3-(3-(3-cyclopropoxyphenoxy)phenyl)-1H-imidazo[4,5-c]pyridin-2(3H)-one], the IC50 lay in the range of 10 to 100 nM.
For the compound `C=CC(=O)Nc1cccc(-n2c(=O)n(-c3ccc(Oc4cccc(OCC)c4)cc3)c3cnccc32)c1` [Example 113, N-(3-(3-(4-(3-ethoxyphenoxy)phenyl)-2-oxo-2,3-dihydro-1H-imidazo[4,5-c]pyridin-1-yl)phenyl)acrylamide], the IC50 fell in the range of 10 to 100 nM.
For `C=CC(=O)Nc1cccc(-n2c(=O)n(-c3ccc(OCc4cc(F)ccc4F)cc3)c3cnccc32)c1` [Example 220, N-(3-(3-(4-((2,5-difluorobenzyl)oxy)phenyl)-2-oxo-2,3-dihydro-1H-imidazo[4,5-c]pyridin-1-yl)phenyl)acrylamide] the value was 100 to 1000 nM; for `C=CC(=O)N1CC[C@@H](n2c(=O)n(-c3ccc(Oc4cccc(OC)c4C)cc3)c3cnccc32)C1` [Example 143, (R)-1-(1-acryloylpyrrolidin-3-yl)-3-(4-(3-methoxy-2-methylphenoxy)phenyl)-1H-imidazo[4,5-c]pyridin-2(3H)-one], 10 to 100 nM; for `C=CC(=O)N1CC[C@@H](n2c(=O)n(-c3ccc(OCc4ccc(C(F)(F)F)cc4)cc3)c3cnccc32)C1` [Example 212, (R)-1-(1-acryloylpyrrolidin-3-yl)-3-(4-((4-(trifluoromethyl)benzyl)oxy)phenyl)-1H-imidazo[4,5-c]pyridin-2(3H)-one], 100 to 1000 nM.
On to `C=CC(=O)N1CC[C@@H](n2c(=O)n(-c3ccc(Oc4ccccc4)cc3)c3cncc(Cl)c32)C1` [Example 151, (R)-1-(1-acryloylpyrrolidin-3-yl)-7-chloro-3-(4-phenoxyphenyl)-1H-imidazo[4,5-c]pyridin-2(3H)-one], for which the IC50 was at most 10 nM.
For `C=CC(=O)N1CCC[C@@H](n2c(=O)n(-c3ccc(Oc4cccc(F)c4)cc3)c3cnccc32)C1` [Example 117, (R)-1-(1-acryloylpiperidin-3-yl)-3-(4-(3-fluorophenoxy)phenyl)-1H-imidazo [4,5-c]pyridin-2(3H)-one], the IC50 is 10 to 100 nM.
On to `C=CC(=O)N1CCC(n2c(=O)n(-c3ccc(Oc4cccc(OC)c4)c(C)c3)c3cnccc32)C1` (stereo not shown) [Example 92, 1-(1-acryloylpyrrolidin-3-yl)-3-(4-(3-methoxyphenoxy)-3-methylphenyl)-1,3-dihydro-2H-imidazo[4,5-c]pyridin-2-one], for which the IC50 lay in the range of 10 to 100 nM.
In the case of `C=CC(=O)N1CC[C@@H](n2c(=O)n(-c3cccc(Oc4ccc(OC)cc4)c3)c3cnccc32)C1` [Example 17, (R)-1-(1-acryloylpyrrolidin-3-yl)-3-(3-(4-methoxyphenoxy)phenyl)-1H-imidazo[4,5-c]pyridin-2(3H)-one], the IC50 lay in the range of 100 to 1000 nM.
